Source: ChEMBL document CHEMBL2413024, “Design and synthesis of pyrido[3,2-α]carbazole derivatives and their analogues as potent antitumour agents” (Eur J Med Chem, 2013)

Key:
A549 [1] = assay: Antitumor activity against human A549 cells after 72 hrs by sulforhodamine B assay; assay type: functional, cell-based; conditions: A549, 72 h
HT-29 [2] = assay: Antitumor activity against human HT-29 cells after 72 hrs by sulforhodamine B assay; assay type: functional, cell-based; conditions: HT-29, 72 h
[3] = Aqueous solubility of the compound in pure water at 25 degC; assay type: physicochemical
A549 [4] = assay: Ratio of R16 IC50 to compound IC50 for human A549 cells; assay type: functional
HT-29 [5] = assay: Ratio of R16 IC50 to compound IC50 for human HT-29 cells; assay type: functional

Row | SMILES | IC50 (A549 [1]) [nM] | IC50 (HT-29 [2]) [nM] | solubility [3] [mg/mL] | Ratio IC50 (A549 [4]) | Ratio IC50 (HT-29 [5])
1 | CN(C)CCN1C(=O)c2cccc3c2c(cc2c4ccccc4sc32)C1=O | 200 | 1090 | – | – | –
2 | CN(C)CCNC(=O)c1cc2c3cc(O)ccc3n(C)c2c2cccnc12.Cl | – | – | 22.4 | – | –
3 | CN(C)CCNC(=O)c1cc2c3ncccc3n(C)c2c2cccnc12 | 360 | 220 | – | – | –
4 | CN(C)CCNC(=O)c1cc2c3cnccc3n(C)c2c2cccnc12 | 160 | 150 | – | – | –
5 | CN(C)CCNC(=O)c1cc2c3ccncc3n(C)c2c2cccnc12 | 130 | 130 | – | – | –
6 | CN(C)CCNC(=O)c1cc2c3cccnc3n(C)c2c2cccnc12 | 160 | 180 | – | – | –
7 | Cn1c2ccccc2c2cc(C(=O)NCCN3CCCC3)c3ncccc3c21 | 270 | 630 | – | – | –
8 | Cn1c2ccccc2c2cc(C(=O)NCCN3CCNCC3)c3ncccc3c21 | 780 | 1250 | – | – | –
9 | CN1CCN(CCNC(=O)c2cc3c4ccccc4n(C)c3c3cccnc23)CC1 | 890 | 1240 | – | – | –
10 | Cn1c2ccccc2c2cc(C(=O)NCCN3CCOCC3)c3ncccc3c21 | 1180 | 2240 | – | – | –
11 | Cn1c2ccccc2c2cc(C(=O)NCCN3CCCCC3)c3ncccc3c21 | 820 | 1300 | – | – | –
12 | Cn1c2ccccc2c2cc(C(=O)NCCN)c3ncccc3c21 | 2110 | 2470 | – | – | –
13 | CNCCNC(=O)c1cc2c3ccccc3n(C)c2c2cccnc12 | 1370 | 1460 | – | – | –
14 | Cn1c2ccccc2c2cc(C(=O)NCCO)c3ncccc3c21 | 3060 | 4450 | – | – | –
15 | CN(C)CCCNC(=O)c1cc2c3ccccc3n(C)c2c2cccnc12 | 560 | 850 | – | – | –
16 | Cn1c2ccccc2c2cc(C(=O)NCCCN3CCCC3)c3ncccc3c21 | 870 | 1060 | – | – | –
17 | Cn1c2ccccc2c2cc(C(=O)NCCCN3CCOCC3)c3ncccc3c21 | 710 | 1410 | – | – | –
18 | CN(C)CCCNC(=O)c1cc2c3ccccc3oc2c2cccnc12 | 2230 | 2060 | – | – | –
19 | CN(C)CCCNC(=O)c1cc2c3ccccc3sc2c2cccnc12 | 600 | 1160 | – | – | –
20 | CN(C)CCNC(=O)c1cc2c3ccccc3oc2c2cccnc12 | 1890 | 2270 | – | – | –
21 | CN(C)CCNC(=O)c1cc2c3ccccc3sc2c2cccnc12 | 270 | 600 | – | – | –
22 | COc1ccc2c(c1)c1cc(C(=O)NCCN(C)C)c3ncccc3c1n2C | 220 | 200 | – | – | –
23 | CN(C)CCNC(=O)c1cc2c3cc(O)ccc3n(C)c2c2cccnc12 | 70 | 110 | – | 7 | 10
24 | CN(C)CCNC(=O)c1cc2c3cc(F)ccc3n(C)c2c2cccnc12 | 170 | 160 | – | – | –
25 | CN(C)CCNC(=O)c1cc2c3cc(Cl)ccc3n(C)c2c2cccnc12 | 260 | 230 | – | – | –
26 | CN(C)CCNC(=O)c1cc2c3ccccc3[nH]c2c2cccnc12 | 690 | 830 | – | – | –
27 | CN(C)CCCNC(=O)c1cc2c3ccccc3[nH]c2c2cccnc12 | 770 | 1390 | – | – | –
28 | CN(C)CCNC(=O)c1cc2c3ccccc3n(C)c2c2cccnc12 | 390 | 470 | – | – | –
